Measurements as given in US20110091570A1, “Compositions and Devices for Antisepsis and Anticoagulation” (priority 2008, published 2011).
Where “and” joins values, the source holds several entries; their conditions need not be identical. Equal values may be shown once.

Assays:
Streptococcus pyogenes = assay: Bactericidal activity of NCT without and with heparin (CFU counts); format: cell-based
Description: FIG. 3 presents a plot of bactericidal activity of 1% NCT without and with 125 IE/mL heparin against Streptococcus pyogenes at pH 7.1 and 37° C. Mean values±standard error of the mean of three independent experiments. P>0.05 between NCT without and NCT with heparin.
NCT was dissolved in 0.1 M phosphate buffer containing either 125 IE/mL heparin or no heparin. The final NCT concentration was 1%. Various bacterial species were grown in tryptic soy broth overnight, were washed twice in saline and then suspended in the NCT and NCT/heparin solutions. The species were Staphylococcus aureus (ATCC 25923), Escherichia coli (ATCC 11229), Streptococcus pyogenes, Staphylococcus epidermidis, Pseudomonas aeruginosa, Proteus mirabilis, and methicillin-resistant Staphylococcus aureus. Controls were performed with the foregoing bacterial species suspended in 0.1 M phosphate buffer without additives and in 0.1 M phosphate buffer containing 125 IE/mL heparin. All of the solutions were incubated at 37° C. and pH 7.1. After 1, 3, 5, 8, and 10 minutes, aliquots of 100 μL were removed and diluted 10-fold or 100-fold in 0.6% sodium thiosulfate solution to inactivate the NCT. Aliquots (50 μL) of these dilutions were spread on tryptic soy agar plates. The plates were incubated at 37° C. and colony forming units of bacteria were counted after 24 and 48 hours. […]

Pseudomonas aeruginosa = assay: as above; format: cell-based
Fibrinogen = molecular target: T1, Fibrinogen (Homo sapiens, UniProt P02671+P02675+P02679); assay: Fibrinogen, Multifibren U test; format: biochemical; conditions: for Fibrinogen, mean value: mean of 11 subjects
T1 construct: from tissue; host or cells: citrated whole blood of volunteers
T1 sequence (P02671 20-629 limits assumed): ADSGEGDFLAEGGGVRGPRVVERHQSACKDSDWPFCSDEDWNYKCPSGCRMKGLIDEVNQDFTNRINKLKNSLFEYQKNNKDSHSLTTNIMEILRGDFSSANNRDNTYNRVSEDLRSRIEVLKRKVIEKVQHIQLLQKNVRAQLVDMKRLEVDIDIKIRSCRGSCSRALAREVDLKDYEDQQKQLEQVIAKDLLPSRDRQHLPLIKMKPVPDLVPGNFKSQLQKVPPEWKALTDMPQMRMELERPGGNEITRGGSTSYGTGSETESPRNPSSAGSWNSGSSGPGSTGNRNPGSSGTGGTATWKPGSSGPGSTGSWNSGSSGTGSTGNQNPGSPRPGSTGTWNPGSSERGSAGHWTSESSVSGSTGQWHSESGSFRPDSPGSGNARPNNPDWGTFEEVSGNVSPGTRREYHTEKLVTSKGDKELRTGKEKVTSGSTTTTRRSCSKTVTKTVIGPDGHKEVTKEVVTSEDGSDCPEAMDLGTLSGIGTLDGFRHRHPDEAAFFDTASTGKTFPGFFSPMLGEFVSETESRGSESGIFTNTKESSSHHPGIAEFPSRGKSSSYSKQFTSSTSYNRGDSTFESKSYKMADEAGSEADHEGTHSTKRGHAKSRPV
T1 sequence (P02675 31-491): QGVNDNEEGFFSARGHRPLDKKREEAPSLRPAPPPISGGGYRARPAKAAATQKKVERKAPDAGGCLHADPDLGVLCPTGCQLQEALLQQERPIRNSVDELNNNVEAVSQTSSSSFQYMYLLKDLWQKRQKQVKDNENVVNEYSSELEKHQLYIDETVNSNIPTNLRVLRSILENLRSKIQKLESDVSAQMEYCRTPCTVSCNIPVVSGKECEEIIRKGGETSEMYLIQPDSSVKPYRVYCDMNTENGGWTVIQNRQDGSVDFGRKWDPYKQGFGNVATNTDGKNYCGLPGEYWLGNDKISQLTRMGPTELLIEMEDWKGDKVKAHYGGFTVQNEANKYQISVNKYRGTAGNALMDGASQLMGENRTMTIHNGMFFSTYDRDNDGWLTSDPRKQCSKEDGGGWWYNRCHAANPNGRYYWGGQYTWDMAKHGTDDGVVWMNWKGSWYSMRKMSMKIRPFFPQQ
T1 sequence (P02679 27-453): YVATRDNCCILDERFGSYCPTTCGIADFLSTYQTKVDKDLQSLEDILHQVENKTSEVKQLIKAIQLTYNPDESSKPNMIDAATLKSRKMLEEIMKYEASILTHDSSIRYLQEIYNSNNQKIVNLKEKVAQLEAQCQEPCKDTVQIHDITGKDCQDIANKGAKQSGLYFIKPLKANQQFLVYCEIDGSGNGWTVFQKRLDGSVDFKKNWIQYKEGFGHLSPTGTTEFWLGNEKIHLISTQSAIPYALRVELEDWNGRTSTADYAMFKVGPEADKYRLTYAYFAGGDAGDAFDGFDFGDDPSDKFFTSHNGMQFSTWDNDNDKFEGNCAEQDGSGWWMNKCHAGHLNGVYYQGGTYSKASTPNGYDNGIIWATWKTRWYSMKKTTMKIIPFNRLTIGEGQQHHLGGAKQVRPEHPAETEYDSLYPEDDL
Description: Whole blood was taken from a single volunteer and enriched with trisodium citrate (0.3 mL of a 0.106 molar solution per 3 mL whole blood) (S-Monovette®, Sarstedt, Nümbrecht, Germany). Portions of 1.8 mL citrate blood were mixed with 0.2 mL NCT in 0.9% saline. The following final (after dilution in blood) NCT concentrations were tested separately: 1% (55 mM); 0.5% (27.5 mM); 0.25% (13.75 mM); 0.1% (5.5 mM); 0.05% (2.75 mM); 0.025% (1.375 mM); and 0.01% (0.55 mM). A control without NCT was performed in parallel. The following commercial coagulation tests were performed according to the prescription of the manufacturer: prothrombin time (PT) was determined using Thromborel® S test (Dade Behring GmbH, Marburg, Germany), activated partial thromboplastin time (aPTT) was determined using Pathromtin* SL test (Dade Behring GmbH, Marburg, Germany); thrombin time (TT) was determined using BC Thrombin Reagent test (Dade Behring GmbH, Marburg, Germany); and fibrinogen was determined using Multifibren* U test (Dade Behring GmbH, Marburg, Germany).
Whole blood was taken from 11 volunteers and enriched with trisodium citrate (0.3 mL of a 0.106 molar solution per 3 mL whole blood) (S-Monovette®, Sarstedt, Nümbrecht, Germany). Commercial coagulation tests (as described in Example 6) were performed with the following samples: […]

[1] = 0.1% NCT, virtually identical experiments
[2] = 1% NCT, 125 IE/mL heparin, pH 7.1, 37° C., 1-10 min

O=S(=O)(O)CCNCl [NCT, N-chlorotaurine]
influence of heparin on the killing of bacteria (Streptococcus pyogenes; [1]): no statistically significant influence of heparin on the killing of bacteria
killing activity of NCT with vs without heparin (Streptococcus pyogenes; [2]): no difference in the killing activity
influence of heparin on the killing of bacteria (Pseudomonas aeruginosa; [1]): no statistically significant influence of heparin on the killing of bacteria
killing activity of NCT with vs without heparin (Pseudomonas aeruginosa; [2]): no difference in the killing activity
Fibrinogen (Fibrinogen; Example 6, single volunteer, 0.01% (0.55 mM) NCT final): 281.4
Fibrinogen (Fibrinogen; Example 6, single volunteer, 0.025% (1.375 mM) NCT final): 199.4
Fibrinogen (Fibrinogen; Example 6, single volunteer, 0.05% (2.75 mM) NCT final): not detectable
Fibrinogen (Fibrinogen; Example 6, single volunteer, 0.1% (5.5 mM) NCT final): not detectable
Fibrinogen (Fibrinogen; Example 6, single volunteer, 0.25% (13.75 mM) NCT final): not detectable
Fibrinogen (Fibrinogen; Example 6, single volunteer, 0.5% (27.5 mM) NCT final): not detectable
Fibrinogen (Fibrinogen; Example 6, single volunteer, 1% (55 mM) NCT final): not detectable
Fibrinogen (Fibrinogen; Example 7, 0.01% NCT, individual subjects 1-11): 170 mg/dL and 112 mg/dL and 240 mg/dL and 87 mg/dL and 194 mg/dL and 178 mg/dL and 226 mg/dL and 237 mg/dL and 224 mg/dL and 230 mg/dL and 215 mg/dL
Fibrinogen, mean value (Fibrinogen; Example 7, 0.01% NCT): 192.1 mg/dL
Fibrinogen (Fibrinogen; Example 7, 0.025% NCT, individual subjects 1-11): 40 mg/dL
Fibrinogen, mean value (Fibrinogen; Example 7, 0.025% NCT): 40.0 mg/dL
